Tests used:
[1] = target: T1, Ephrin type-B receptor 4 (Homo sapiens) (UniProt P54760); assay: Inhibition of human N-terminal GST-tagged EPHB4 cytoplasmic domain (577 to 987 residues) expressed in baculovirus expression system using fluorescence labelled Blk/Lyntide as substrate at 50 times IC50 by electrophoretic mobility shift assay relative to control
T1 sequence (whole entry): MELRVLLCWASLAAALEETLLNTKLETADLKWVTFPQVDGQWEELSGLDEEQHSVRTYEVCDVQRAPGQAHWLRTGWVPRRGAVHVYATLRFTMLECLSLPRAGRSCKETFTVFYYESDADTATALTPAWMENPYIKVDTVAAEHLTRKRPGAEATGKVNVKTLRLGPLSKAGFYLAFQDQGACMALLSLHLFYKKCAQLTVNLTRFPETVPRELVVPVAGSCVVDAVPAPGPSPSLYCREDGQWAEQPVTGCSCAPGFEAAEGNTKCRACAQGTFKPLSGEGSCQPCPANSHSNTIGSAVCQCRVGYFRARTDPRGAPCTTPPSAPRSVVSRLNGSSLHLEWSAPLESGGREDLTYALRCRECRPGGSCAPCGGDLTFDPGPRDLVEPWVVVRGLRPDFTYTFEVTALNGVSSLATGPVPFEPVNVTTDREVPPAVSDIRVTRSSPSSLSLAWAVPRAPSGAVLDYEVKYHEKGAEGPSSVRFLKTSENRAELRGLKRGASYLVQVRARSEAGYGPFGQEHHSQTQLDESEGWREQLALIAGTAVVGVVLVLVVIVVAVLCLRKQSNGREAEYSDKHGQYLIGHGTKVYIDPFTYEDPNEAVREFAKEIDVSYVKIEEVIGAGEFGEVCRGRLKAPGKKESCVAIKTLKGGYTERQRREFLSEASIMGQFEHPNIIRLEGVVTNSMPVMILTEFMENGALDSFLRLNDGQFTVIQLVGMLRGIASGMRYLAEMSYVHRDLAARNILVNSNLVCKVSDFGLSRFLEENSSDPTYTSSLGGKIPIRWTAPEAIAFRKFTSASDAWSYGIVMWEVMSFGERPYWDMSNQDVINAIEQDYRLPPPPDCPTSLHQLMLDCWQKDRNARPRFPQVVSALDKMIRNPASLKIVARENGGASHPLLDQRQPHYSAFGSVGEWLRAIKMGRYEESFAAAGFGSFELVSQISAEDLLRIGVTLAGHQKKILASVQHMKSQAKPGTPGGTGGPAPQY

[2] = target: Angiopoietin-1 receptor (Homo sapiens) (UniProt Q02763); assay: Inhibition of human N-terminal GST-tagged TIE2 receptor cytoplasmic domain (771 to 1124 residues) expressed in baculovirus expression system using fluorescence labelled Blk/Lyntide as substrate at 50 times IC50 by electrophoretic mobility shift assay relative to control
Chain of Angiopoietin-1 receptor (Homo sapiens) (Q02763 whole entry, the tested form may be a part): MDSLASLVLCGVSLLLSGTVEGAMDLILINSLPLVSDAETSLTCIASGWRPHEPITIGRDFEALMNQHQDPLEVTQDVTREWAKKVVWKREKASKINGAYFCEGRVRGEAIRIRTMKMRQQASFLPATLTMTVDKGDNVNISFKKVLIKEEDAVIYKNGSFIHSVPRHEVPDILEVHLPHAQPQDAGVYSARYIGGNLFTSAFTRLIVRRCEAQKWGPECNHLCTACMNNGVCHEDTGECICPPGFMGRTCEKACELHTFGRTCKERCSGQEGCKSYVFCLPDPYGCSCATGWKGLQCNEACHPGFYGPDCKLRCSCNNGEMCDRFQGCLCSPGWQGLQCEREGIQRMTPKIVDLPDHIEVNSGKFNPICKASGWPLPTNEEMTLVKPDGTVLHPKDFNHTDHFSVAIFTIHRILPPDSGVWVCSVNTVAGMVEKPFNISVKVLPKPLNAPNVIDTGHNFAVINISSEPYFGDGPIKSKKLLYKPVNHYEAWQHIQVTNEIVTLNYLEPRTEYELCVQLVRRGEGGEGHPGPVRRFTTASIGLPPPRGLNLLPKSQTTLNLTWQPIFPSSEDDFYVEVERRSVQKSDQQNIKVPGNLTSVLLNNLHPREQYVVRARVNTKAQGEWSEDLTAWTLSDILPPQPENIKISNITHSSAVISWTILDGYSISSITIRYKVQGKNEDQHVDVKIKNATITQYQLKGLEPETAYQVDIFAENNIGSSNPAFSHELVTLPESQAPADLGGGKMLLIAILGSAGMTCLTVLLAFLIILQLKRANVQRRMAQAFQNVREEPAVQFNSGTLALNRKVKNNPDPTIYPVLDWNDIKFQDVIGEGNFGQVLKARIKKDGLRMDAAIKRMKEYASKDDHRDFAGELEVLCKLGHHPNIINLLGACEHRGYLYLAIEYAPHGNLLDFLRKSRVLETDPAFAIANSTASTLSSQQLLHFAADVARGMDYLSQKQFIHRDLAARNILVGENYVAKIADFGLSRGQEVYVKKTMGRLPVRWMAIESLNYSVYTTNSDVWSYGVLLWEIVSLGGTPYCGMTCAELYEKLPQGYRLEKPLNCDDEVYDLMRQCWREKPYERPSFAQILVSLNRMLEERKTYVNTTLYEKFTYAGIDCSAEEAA

[3] = target: AMP-activated protein kinase, AMPK (Homo sapiens) (UniProt P54646+O43741+P54619+Q9UGJ0+Q9Y478+Q13131+Q9UGI9); assay: Inhibition of human N-terminal GST-tagged AMPKalpha1 (1 to 550 residues)/beta1 (1 to 270 residues)/gamma1 (1 to 331 residues) expressed in baculovirus expression system using fluorescence labelled SAMS peptide substrate at 50 times IC50 by electrophoretic mobility shift assay relative to control
[4] = target: CDK2/Cyclin A2 (Homo sapiens) (UniProt P24941+P20248); assay: Inhibition of full length human N-terminal GST-tagged CDK2 (1 to 298 residues)/Cyclin A2 (1 to 432 residues) expressed in baculovirus expression system using fluorescence labelled modified histone H1 as substrate at 50 times IC50 by electrophoretic mobility shift assay relative to control
[5] = target: T2, Serine/threonine-protein kinase D2 (Homo sapiens) (UniProt Q9BZL6); assay: Inhibition of full length human N-terminal GST-tagged PKD2 (1 to 878 residues) expressed in baculovirus expression system using fluorescence labelled GS peptide substrate at 50 times IC50 by electrophoretic mobility shift assay relative to control
T2 sequence (whole entry): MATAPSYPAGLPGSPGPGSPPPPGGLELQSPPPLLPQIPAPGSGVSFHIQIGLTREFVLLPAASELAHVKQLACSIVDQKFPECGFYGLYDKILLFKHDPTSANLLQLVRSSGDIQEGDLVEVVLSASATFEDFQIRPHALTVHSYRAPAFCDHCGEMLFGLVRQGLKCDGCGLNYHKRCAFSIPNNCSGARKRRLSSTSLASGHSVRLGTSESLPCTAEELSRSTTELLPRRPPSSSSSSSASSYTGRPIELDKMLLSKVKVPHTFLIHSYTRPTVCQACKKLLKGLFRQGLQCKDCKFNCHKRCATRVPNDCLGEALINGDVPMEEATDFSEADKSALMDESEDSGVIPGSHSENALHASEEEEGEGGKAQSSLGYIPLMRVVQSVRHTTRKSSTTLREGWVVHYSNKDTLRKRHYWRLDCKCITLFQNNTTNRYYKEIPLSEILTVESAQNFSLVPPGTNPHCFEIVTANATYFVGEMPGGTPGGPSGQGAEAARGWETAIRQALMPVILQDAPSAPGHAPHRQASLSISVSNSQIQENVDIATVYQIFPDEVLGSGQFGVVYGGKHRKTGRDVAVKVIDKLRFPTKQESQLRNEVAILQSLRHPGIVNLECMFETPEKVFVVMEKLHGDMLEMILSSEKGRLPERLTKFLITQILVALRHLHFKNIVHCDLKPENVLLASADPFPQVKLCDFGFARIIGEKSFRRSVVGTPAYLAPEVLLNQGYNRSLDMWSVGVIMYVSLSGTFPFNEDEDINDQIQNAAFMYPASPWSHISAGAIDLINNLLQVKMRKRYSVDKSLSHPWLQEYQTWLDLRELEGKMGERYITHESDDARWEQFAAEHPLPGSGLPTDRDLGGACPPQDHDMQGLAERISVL

[6] = target: T3, Serine/threonine-protein kinase Sgk1 (Homo sapiens) (UniProt O00141); assay: Inhibition of human N-terminal GST-tagged SGK (61 to 431 residues) expressed in baculovirus expression system coexpressing His-tagged PDK1 (1 to 556 residues) using fluorescence labelled SGKtide as substrate at 50 times IC50 by electrophoretic mobility shift assay relative to control
T3 sequence (whole entry): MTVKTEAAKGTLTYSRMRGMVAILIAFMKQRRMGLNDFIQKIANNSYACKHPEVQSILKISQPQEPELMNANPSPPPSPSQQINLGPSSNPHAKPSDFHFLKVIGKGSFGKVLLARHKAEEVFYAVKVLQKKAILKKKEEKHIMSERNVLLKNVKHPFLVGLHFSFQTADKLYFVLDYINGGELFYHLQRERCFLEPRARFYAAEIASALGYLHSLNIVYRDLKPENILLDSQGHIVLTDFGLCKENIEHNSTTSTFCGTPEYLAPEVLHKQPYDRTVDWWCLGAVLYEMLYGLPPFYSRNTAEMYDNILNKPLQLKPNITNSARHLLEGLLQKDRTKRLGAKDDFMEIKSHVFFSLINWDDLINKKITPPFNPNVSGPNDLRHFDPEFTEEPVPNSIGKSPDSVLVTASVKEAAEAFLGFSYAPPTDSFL

SMILES	inhibition [1] [%]	inhibition [2] [%]	inhibition [3] [%]	inhibition [4] [%]	inhibition [5] [%]	inhibition [6] [%]
O=C(Nc1ccc(CN2CCN(c3ccccc3)CC2)cc1)c1n[nH]c2ccccc12	-0.4	-2.5	9.2	4.5	4.5	11.9
O=C(Nc1ccccc1)c1n[nH]c2ccccc12	0.4	3	46	86.3	1.3	42.4
O=C(Nc1ccc(C(=O)N2CCN(c3ccccc3)CC2)cc1)c1n[nH]c2ccccc12	-1.2	-2	18	14.9	5.7	26.3

From ChEMBL document CHEMBL3792292, “Development of a potent and selective FLT3 kinase inhibitor by systematic expansion of a non-selective fragment-screening hit” (Bioorg Med Chem Lett, 2016)
